For assay [1], the target named is T1, mTOR (Homo sapiens, UniProt P42345). Put plainly: 3A1 clone with stable expression of SB-eIF4E/LB-4E-BP2 (stable pool and single-cell clones). The format is cell-based. The note with it: 3A1 stable cell line pool expressing SB-eIF4E/LB-4E-BP2, FIG. 12. On the procedure:
Taking the 3A1 clone, we created a stable cell line pool (cells that underwent a minimum of 2 weeks of hygromycin selection) with stable expression of SB-eIF4E/ LB-4E-BP2.
Three to five days after transfection, the transfected cells were trypsinized and replated on to 6-count of 10 cm plates containing 300 μg/ml of hygromycin (ThermoFisher). For 7 days, media was replaced every 2-3 days with fresh hygromycin, after which cells were trypsinized, pooled and concentrated, and counted for plating as single cells on to 96-well plates. Fifty ml containing 400 cells were plated on to 5-count of 96-well plates with each well containing 100 μl of media+cell. DMEM conditioned with previous incubation with HEK293 cells was saved, filtered, and used for single-cell plating. The remainder of the hygromycin treated cells was then pooled and used as “stable pools” for experimentation.

Assay [2] deals with T1, mTOR. In kind it is cell-based. The conditions noted are these: 3A1 clone transiently transfected with SB-eIF4E/LB-4E-BP2, FIG. 11. The source says:
We compared single-cell clone termed “3A1” (FIG. 10A,B) with single-cell clone termed “1C3” (FIG. 10C,D) in the assay containing either LB-4E-BP1(Figure 10A,C) or LB-4E-BP2 (FIG. 10B,D).

Assay [3] concerns the target T2, WT mTOR (Homo sapiens, UniProt P42345).
T2 construct: our assay has the ability to measure the function of full-length mTOR and its genetic variants; expressed in transfected cells
Put plainly: 3A1 clone stably expressing SB-eIF4E, transiently expressing LB-4E-BP2 and WT mTOR. The note with it: 3A1 stably SB-eIF4E, concentration curves at least 5 logs, FIG. 16. In kind it is cell-based. The source says: (§1) To overcome this issue, we created a stable cell pool with the 3A1 clone, stably expressing only SB-eIF4E.

Assay [4] has as its target T3, S2035I mTOR (Homo sapiens, UniProt P42345, S2035I).
T3 construct: our assay has the ability to measure the function of full-length mTOR and its genetic variants; expressed in transfected cells
Description: 3A1 clone stably expressing SB-eIF4E, transiently expressing LB-4E-BP2 and S2035I mTOR. In kind it is cell-based. The note with it: 3A1 stably SB-eIF4E, concentration curves at least 5 logs, FIG. 16.
Description: as §1

Assay [5] deals with T3, S2035I mTOR. Put plainly: B10 clone stably expressing SB-eIF4E, transient LB-4E-BP2 and S2035I mTOR. The format is cell-based. The conditions noted are these: FIG. 18.
Assay [6] concerns phosphorylation of 4E-BP1. The note with it: read-out: reported IC50 in inhibiting phosphorylation of 4E-BP1; Western blot; Sedrani et al., 1998; cited from earlier work. A general note: A western blot detects proteins with antibodies after separation by electrophoresis.
Assay [7] has as its target T2, WT mTOR. Put plainly: B10 clone (4E-BP dKO, MTOR genomic modification) stably expressing SB-eIF4E, transient LB-4E-BP2 and WT mTOR. The note with it: FIG. 18. The format is cell-based.
Description: With the goal of our assay to measure the effects of mTOR mutations in combination with different types of mTOR inhibitors, we performed our assay using the B10 cell clone stably expressing SB-eIF4E and transiently expressing LB-4E-BP2 and either WT or L2185A mTOR.
A further assay deals with cellular proliferation. The conditions noted are these: Hsieh et al., 2012; read-out: EC50 for the inhibition of cellular proliferation; cited from earlier work.
The subject of assay [8] is phosphorylation of the ribosomal protein S6. The note with it: Guichard et al., 2015; read-out: IC50 for inhibition of phosphorylation of the ribosomal protein S6; cited from earlier work.

Like-named read-outs stand apart in the source and are kept apart here.

For orientation: IC50 means the concentration that gives 50% inhibition.

Regarding `CO[C@@H](C)Cn1c(=O)n(C)c2cnc3ccc(-c4cncc(C(C)(C)O)c4)cc3c21` [LY3023414], the “concentration dependence of luminescence” value at mTOR [1] is given as “concentration-dependent increase in luminescence”.

As to `CO[C@H]1C[C@@H]2CC[C@@H](C)[C@@](O)(O2)C(=O)C(=O)N2CCCC[C@H]2C(=O)O[C@H]([C@H](C)C[C@@H]2CC[C@@H](OCCO)[C@H](OC)C2)CC(=O)[C@H](C)/C=C(\C)[C@@H](O)[C@@H](OC)C(=O)[C@H](C)C[C@H](C)/C=C/C=C/C=C/1C` [everolimus], the “concentration dependence of luminescence” value at mTOR [2] was “concentration dependent activation”; at mTOR [1], “concentration-dependent activation of luminescence”. For the same compound, the “concentration dependence of signal” value is “concentration-dependent increase in signal” on WT mTOR [3]; “rapamycin resistance” on S2035I mTOR [4]; “cleaner difference between the WT and S2035I mTOR” at S2035I mTOR [5]. For the same compound, the IC50 in [6] was 1.6 to 2.4 nM.

With `CCc1cncnc1N1CCN(Cc2nc3ccc(C(F)(F)F)cc3[nH]2)CC1` [PF4708671], at mTOR [1], the “concentration dependence of luminescence” value is given as “did not”.

`CO[C@H]1CC[C@H](N2C(=O)CNc3ncc(-c4ccc(C(C)(C)O)nc4)nc32)CC1` [CC223]: the “concentration dependence of luminescence” value at mTOR [1] was “concentration-dependent increase in luminescence”.

With `CC(C)n1nc(-c2ccc3oc(N)nc3c2)c2c(N)ncnc21` [INK128], the “concentration dependence of luminescence” value at mTOR [2] is “concentration dependent activation”; on mTOR [1] it was “concentration-dependent activation of luminescence”. Also, the “concentration dependence of signal” value at WT mTOR [3] is given as “concentration-dependent increase in signal”; at S2035I mTOR [4], “concentration-dependent increase”; at WT mTOR [7], “concentration-dependent increase for both mTORs”; on S2035I mTOR [5], “concentration-dependent increase for both mTORs”. Further, the EC50 in the assay with cellular proliferation is 17 nM.

Consider `CNC(=O)c1cccc(-c2ccc3c(N4CCOC[C@@H]4C)nc(N4CCOC[C@@H]4C)nc3n2)c1` [AZD2014], for which the “concentration dependence of luminescence” value is listed as “concentration dependent activation” at mTOR [2] and “concentration-dependent activation of luminescence” at mTOR [1]. In addition, the “concentration dependence of signal” value at WT mTOR [3] is reported as “concentration-dependent increase in signal”; on S2035I mTOR [4], “concentration-dependent increase”; at WT mTOR [7], “concentration-dependent increase for both mTORs”; on S2035I mTOR [5] it was “concentration-dependent increase for both mTORs”. For the same compound, the IC50 in assay [8] was 210 nM.

The values above are taken from patent US10351609B2, “Cell-based assay for determining mTOR activity” (Medical Diagnostic Laboratories, LLC, priority 2016, dated 2019).
